The target in one assay is BRM (Homo sapiens, UniProt P51531). In words: ATPase catalytic activity of BRM (ADP-Glo in vitro biochemical assay). Conditions: for BRM Max % Inhibition: Table 6. On the technique in general: In ADP-Glo the light output rises with the ADP produced.
The next assay deals with BRG-1 (Homo sapiens, UniProt P51532). Description: ATPase catalytic activity of BRG-1 (ADP-Glo in vitro biochemical assay). Conditions: for BRG1 Max % Inhibition: Table 6.

The values below come from US11497752B2, “Compounds and uses thereof” (Foghorn Therapeutics Inc., priority 2018, dated 2022).

Molecules are shown by their SMILES.

Chain of BRG-1 (P51532 whole entry): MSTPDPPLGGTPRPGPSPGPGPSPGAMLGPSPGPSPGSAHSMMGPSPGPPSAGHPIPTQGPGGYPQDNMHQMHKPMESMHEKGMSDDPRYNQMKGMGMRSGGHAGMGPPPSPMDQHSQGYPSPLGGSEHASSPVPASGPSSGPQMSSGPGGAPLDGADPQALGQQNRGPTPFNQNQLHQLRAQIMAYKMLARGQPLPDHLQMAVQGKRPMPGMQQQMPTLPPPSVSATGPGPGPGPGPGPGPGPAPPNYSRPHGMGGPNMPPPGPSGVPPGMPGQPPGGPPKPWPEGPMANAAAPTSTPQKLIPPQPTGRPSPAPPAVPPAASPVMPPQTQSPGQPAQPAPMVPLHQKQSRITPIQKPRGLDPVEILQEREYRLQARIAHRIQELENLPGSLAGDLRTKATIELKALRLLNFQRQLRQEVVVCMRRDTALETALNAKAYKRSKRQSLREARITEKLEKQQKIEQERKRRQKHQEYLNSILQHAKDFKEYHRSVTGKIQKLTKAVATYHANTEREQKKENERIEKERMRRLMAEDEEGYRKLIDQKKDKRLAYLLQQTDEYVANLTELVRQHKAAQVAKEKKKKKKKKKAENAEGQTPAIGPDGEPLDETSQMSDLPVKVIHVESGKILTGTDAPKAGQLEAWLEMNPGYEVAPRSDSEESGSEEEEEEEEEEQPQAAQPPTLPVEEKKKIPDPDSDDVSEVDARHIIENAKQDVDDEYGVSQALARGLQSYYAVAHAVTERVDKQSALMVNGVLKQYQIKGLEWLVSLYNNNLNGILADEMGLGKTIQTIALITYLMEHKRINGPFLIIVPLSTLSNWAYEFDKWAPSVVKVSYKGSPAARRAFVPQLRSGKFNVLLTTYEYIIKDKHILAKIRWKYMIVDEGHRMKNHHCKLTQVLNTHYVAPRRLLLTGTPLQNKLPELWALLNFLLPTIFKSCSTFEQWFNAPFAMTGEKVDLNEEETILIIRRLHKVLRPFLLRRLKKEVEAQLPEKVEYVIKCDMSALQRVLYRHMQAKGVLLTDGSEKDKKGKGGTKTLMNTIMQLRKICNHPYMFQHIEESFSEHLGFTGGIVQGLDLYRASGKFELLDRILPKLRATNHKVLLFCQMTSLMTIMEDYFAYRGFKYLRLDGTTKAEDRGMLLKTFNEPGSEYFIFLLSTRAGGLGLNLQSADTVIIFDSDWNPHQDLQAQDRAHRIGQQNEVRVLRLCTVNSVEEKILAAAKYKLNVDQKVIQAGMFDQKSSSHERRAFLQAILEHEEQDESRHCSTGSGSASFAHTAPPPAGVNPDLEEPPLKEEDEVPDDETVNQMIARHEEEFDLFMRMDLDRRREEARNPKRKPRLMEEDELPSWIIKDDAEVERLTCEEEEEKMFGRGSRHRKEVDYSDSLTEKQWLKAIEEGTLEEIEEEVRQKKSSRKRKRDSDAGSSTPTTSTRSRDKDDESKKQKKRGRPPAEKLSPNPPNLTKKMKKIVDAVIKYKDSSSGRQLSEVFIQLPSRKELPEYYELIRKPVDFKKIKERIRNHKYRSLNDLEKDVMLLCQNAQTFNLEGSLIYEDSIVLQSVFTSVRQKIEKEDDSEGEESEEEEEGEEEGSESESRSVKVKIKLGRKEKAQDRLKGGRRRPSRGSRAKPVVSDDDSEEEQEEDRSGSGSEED
Chain of BRM (P51531 whole entry): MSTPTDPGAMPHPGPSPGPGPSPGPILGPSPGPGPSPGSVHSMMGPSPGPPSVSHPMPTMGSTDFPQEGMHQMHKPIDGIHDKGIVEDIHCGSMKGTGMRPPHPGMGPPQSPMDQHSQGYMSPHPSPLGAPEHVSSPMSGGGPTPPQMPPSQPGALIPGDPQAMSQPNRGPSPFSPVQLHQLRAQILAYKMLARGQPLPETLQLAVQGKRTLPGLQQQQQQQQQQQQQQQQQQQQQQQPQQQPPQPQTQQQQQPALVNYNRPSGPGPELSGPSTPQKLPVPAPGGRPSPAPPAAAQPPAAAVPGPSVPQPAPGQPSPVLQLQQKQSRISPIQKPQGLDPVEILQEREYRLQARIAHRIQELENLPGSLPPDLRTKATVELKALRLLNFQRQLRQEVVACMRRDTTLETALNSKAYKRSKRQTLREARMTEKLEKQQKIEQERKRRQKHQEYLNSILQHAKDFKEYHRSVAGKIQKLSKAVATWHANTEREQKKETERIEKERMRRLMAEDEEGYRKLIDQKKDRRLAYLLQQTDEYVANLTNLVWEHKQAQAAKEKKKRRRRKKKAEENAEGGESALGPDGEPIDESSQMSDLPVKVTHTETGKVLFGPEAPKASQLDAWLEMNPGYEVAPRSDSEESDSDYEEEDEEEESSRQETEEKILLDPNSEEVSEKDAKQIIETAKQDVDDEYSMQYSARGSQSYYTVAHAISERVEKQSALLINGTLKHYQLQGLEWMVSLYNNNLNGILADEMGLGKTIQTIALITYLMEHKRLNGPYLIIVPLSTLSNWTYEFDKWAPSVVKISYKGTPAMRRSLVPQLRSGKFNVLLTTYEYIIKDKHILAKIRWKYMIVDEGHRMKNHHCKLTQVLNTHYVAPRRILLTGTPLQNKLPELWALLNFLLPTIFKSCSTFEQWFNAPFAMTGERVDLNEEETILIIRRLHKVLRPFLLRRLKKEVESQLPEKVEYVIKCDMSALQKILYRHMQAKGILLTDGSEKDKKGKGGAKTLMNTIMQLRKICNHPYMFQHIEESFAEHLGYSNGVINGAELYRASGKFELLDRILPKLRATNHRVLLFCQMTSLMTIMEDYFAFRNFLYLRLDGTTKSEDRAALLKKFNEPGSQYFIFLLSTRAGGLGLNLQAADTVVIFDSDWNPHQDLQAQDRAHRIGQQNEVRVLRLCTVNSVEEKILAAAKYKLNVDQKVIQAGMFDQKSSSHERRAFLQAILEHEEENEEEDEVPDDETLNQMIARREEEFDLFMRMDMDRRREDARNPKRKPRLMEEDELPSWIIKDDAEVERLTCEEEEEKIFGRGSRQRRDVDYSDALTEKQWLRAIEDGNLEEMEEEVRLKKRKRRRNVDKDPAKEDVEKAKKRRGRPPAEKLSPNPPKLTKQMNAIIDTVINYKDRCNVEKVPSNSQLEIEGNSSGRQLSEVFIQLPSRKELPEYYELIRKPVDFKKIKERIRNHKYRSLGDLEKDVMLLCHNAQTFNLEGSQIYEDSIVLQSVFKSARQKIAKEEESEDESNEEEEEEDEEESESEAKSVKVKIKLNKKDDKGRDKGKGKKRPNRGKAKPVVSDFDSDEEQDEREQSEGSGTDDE

The IC50 is the midpoint of a concentration-inhibition curve. A high value points to weaker potency. In the case of `COc1cc(-c2cccc(-c3csc(NC(=O)CNC(=O)c4ccc(N)cc4)n3)c2)ccn1` [Compound 146, 4-amino-N-(2-((4-(3-(2-methoxypyridin-4-yl)phenyl)thiazol-2-yl)amino)-2-oxoethyl)benzamide], at BRM, the 50% inhibitory concentration (IC50) was less than 100 nM and the “BRM Max % Inhibition” value is reported as more than 95%. Further, on BRG-1, the IC50 is less than 100 nM and the “BRG1 Max % Inhibition” value is on record as more than 95%.

Take `Nc1ccc(C(=O)NCC(=O)Nc2nc(-c3ccc4cc[nH]c(=O)c4c3)cs2)cc1` [Compound 147, 4-amino-N-(2-oxo-2-((4-(1-oxo-1,2-dihydroisoquinolin-7-yl)thiazol-2-yl)amino)ethyl)benzamide]: on BRM, the 50% inhibitory concentration (IC50) is less than 100 nM and the “BRM Max % Inhibition” value was more than 95%. Moreover, at BRG-1, the IC50 was less than 100 nM and the “BRG1 Max % Inhibition” value is reported as more than 95%.

As to `Cn1cnc2ccc(-c3csc(NC(=O)CNC(=O)c4ccc(N)cc4)n3)cc2c1=O` [Compound 148, 4-amino-N-(2-((4-(3-methyl-4-oxo-3,4-dihydroquinazolin-6-yl)thiazol-2-yl)amino)-2-oxoethyl)benzamide], on BRM, the half-maximal inhibitory concentration (IC50) was less than 100 nM and the “BRM Max % Inhibition” value was more than 95%. For the same molecule, at BRG-1, the half-maximal inhibitory concentration (IC50) was less than 100 nM and the “BRG1 Max % Inhibition” value was more than 95%.

As to `N#Cc1ccc(-c2cccc(-c3csc(NC(=O)CNC(=O)c4ccc(N)cc4)n3)c2)cc1` [Compound 149, 4-amino-N-(2-((4-(4′-cyano-[1,1′-biphenyl]-3-yl)thiazol-2-yl)amino)-2-oxoethyl)benzamide], on BRM, the IC50 was less than 100 nM and the “BRM Max % Inhibition” value is given as more than 80%. Further, at BRG-1, the concentration for half-maximal inhibition (IC50) was less than 100 nM and the “BRG1 Max % Inhibition” value is on record as more than 80%.

For `Cn1ncc2ccc(-c3csc(NC(=O)CNC(=O)c4ccc(N)cc4)n3)cc2c1=O` [Compound 150, 4-amino-N-(2-((4-(3-methyl-4-oxo-3,4-dihydrophthalazin-6-yl)thiazol-2-yl)amino)-2-oxoethyl)benzamide], on BRM, the half-maximal inhibitory concentration (IC50) is less than 100 nM and the “BRM Max % Inhibition” value is more than 95%. Besides, at BRG-1, the concentration for half-maximal inhibition (IC50) is less than 100 nM and the “BRG1 Max % Inhibition” value was more than 90%.

Turning to `Nc1ccc(C(=O)NCC(=O)Nc2nc(-c3cccc(-c4ccn(CC(F)(F)F)n4)c3)cs2)cc1` [Compound 151, 4-amino-N-(2-oxo-2-((4-(3-(1-(2,2,2-trifluoroethyl)-1H-pyrazol-3-yl)phenyl)thiazol-2-yl)amino)ethyl)benzamide], at BRM, the concentration for half-maximal inhibition (IC50) is 100 to 1000 nM and the “BRM Max % Inhibition” value is listed as more than 80%. Further, on BRG-1, the IC50 lay within 100 to 1000 nM and the “BRG1 Max % Inhibition” value is given as more than 80%.

`Nc1ccc(C(=O)NCC(=O)Nc2nc(-c3cccc(-c4cccc(F)c4)c3)cs2)cc1` [Compound 152, 4-amino-N-(2-((4-(3′-fluoro-[1,1′-biphenyl]-3-yl)thiazol-2-yl)amino)-2-oxoethyl)benzamide]: on BRM, the IC50 is 100 to 1000 nM and the “BRM Max % Inhibition” value is listed as more than 90%. On BRG-1, the IC50 fell in the range of 100 to 1000 nM and the “BRG1 Max % Inhibition” value is listed as more than 80%.

Regarding `Nc1ccc(C(=O)NCC(=O)Nc2nc(-c3cccc(-c4ccc(CO)cc4)c3)cs2)cc1` [Compound 153, 4-amino-N-(2-((4-(4′-(hydroxymethyl)-[1,1′-biphenyl]-3-yl)thiazol-2-yl)amino)-2-oxoethyl)benzamide], at BRM, the IC50 was less than 100 nM and the “BRM Max % Inhibition” value was more than 90%. Moreover, on BRG-1, the IC50 was less than 100 nM and the “BRG1 Max % Inhibition” value was more than 80%.

For the molecule `Nc1ccc(C(=O)NCC(=O)Nc2nc(-c3cccc(-c4cccc(CO)c4)c3)cs2)cc1` [Compound 154, 4-amino-N-(2-((4-(3′-(hydroxymethyl)-[1,1′-biphenyl]-3-yl)thiazol-2-yl)amino)-2-oxoethyl)benzamide], on BRM, the half-maximal inhibitory concentration (IC50) is less than 100 nM and the “BRM Max % Inhibition” value is recorded as more than 95%. Moreover, at BRG-1, the 50% inhibitory concentration (IC50) is less than 100 nM and the “BRG1 Max % Inhibition” value was more than 95%.

As to `Nc1ccc(C(=O)NCC(=O)Nc2nc(-c3cccc(-c4cc[n+]([O-])cc4)c3)cs2)cc1` [Compound 156, 4-(3-(2-(2-(4-aminobenzamido)acetamido)thiazol-4-yl)phenyl)pyridine 1-oxide], at BRM, the half-maximal inhibitory concentration (IC50) lay within 100 to 1000 nM and the “BRM Max % Inhibition” value is more than 95%. Also, on BRG-1, the IC50 is 100 to 1000 nM and the “BRG1 Max % Inhibition” value is on record as more than 90%.

On to `N#Cc1cccc(-c2cccc(-c3csc(NC(=O)CNC(=O)c4ccc(N)cc4)n3)c2)c1` [Compound 157, 4-amino-N-(2-((4-(3′-cyano-[1,1′-biphenyl]-3-yl)thiazol-2-yl)amino)-2-oxoethyl)benzamide], for which, on BRM, the IC50 is less than 100 nM and the “BRM Max % Inhibition” value is given as more than 95%. In addition, at BRG-1, the IC50 is less than 100 nM and the “BRG1 Max % Inhibition” value was more than 90%.

On to `NCC1CC=C(c2cccc(-c3csc(NC(=O)CNC(=O)c4ccc(N)cc4)n3)c2)CC1` (centres unmarked) [Compound 158, 4-amino-N-(2-((4-(4′-(aminomethyl)-2′,3′,4′,5′-tetrahydro-[1,1′-biphenyl]-3-yl)thiazol-2-yl)amino)-2-oxoethyl)benzamide], for which, on BRM, the IC50 was 100 to 1000 nM and the “BRM Max % Inhibition” value is reported as more than 90%. Moreover, at BRG-1, the half-maximal inhibitory concentration (IC50) was 100 to 1000 nM and the “BRG1 Max % Inhibition” value is listed as more than 95%.

Turning to `Nc1ccc(C(=O)NCC(=O)Nc2nc(-c3cccc(-c4ccnc(N5CCNCC5)c4)c3)cs2)cc1` [Compound 159, 4-amino-N-(2-oxo-2-((4-(3-(2-(piperazin-1-yl)pyridin-4-yl)phenyl)thiazol-2-yl)amino)ethyl)benzamide], on BRM, the half-maximal inhibitory concentration (IC50) lay in the range of 100 to 1000 nM and the “BRM Max % Inhibition” value is more than 90%. Further, on BRG-1, the IC50 was 100 to 1000 nM and the “BRG1 Max % Inhibition” value is more than 95%.

For `NCCNc1cc(-c2cccc(-c3csc(NC(=O)CNC(=O)c4ccc(N)cc4)n3)c2)ccn1` [Compound 160, 4-amino-N-(2-((4-(3-(2-((2-aminoethyl)amino)pyridin-4-yl)phenyl)thiazol-2-yl)amino)-2-oxoethyl)benzamide], on BRM, the IC50 fell in the range of 100 to 1000 nM and the “BRM Max % Inhibition” value is recorded as more than 95%. Further, on BRG-1, the half-maximal inhibitory concentration (IC50) was 100 to 1000 nM and the “BRG1 Max % Inhibition” value was >95%,.

Turning to `Nc1ccc(C(=O)NCC(=O)Nc2nc(-c3cccc(-c4ccn(C5CCOCC5)n4)c3)cs2)cc1` [Compound 162, 4-amino-N-(2-oxo-2-((4-(3-(1-(tetrahydro-2H-pyran-4-yl)-1H-pyrazol-3-yl)phenyl)thiazol-2-yl)amino)ethyl)benzamide], on BRM, the IC50 is less than 100 nM and the “BRM Max % Inhibition” value is given as more than 95%. On BRG-1, the IC50 was less than 100 nM and the “BRG1 Max % Inhibition” value is more than 95%.

For `NCCOc1cc(-c2cccc(-c3csc(NC(=O)CNC(=O)c4ccc(N)cc4)n3)c2)ccn1` [Compound 163, 4-amino-N-(2-((4-(3-(2-(2-aminoethoxy)pyridin-4-yl)phenyl)thiazol-2-yl)amino)-2-oxoethyl)benzamide], at BRM, the IC50 is less than 100 nM and the “BRM Max % Inhibition” value is reported as more than 95%. Also, on BRG-1, the IC50 lay in the range of 100 to 1000 nM and the “BRG1 Max % Inhibition” value was more than 95%.

In the case of `NCc1cc(-c2cccc(-c3csc(NC(=O)CNC(=O)c4ccc(N)cc4)n3)c2)ccn1` [Compound 164, 4-amino-N-(2-((4-(3-(2-(aminomethyl)pyridin-4-yl)phenyl)thiazol-2-yl)amino)-2-oxoethyl)benzamide], at BRM, the half-maximal inhibitory concentration (IC50) was less than 100 nM and the “BRM Max % Inhibition” value is more than 95%. Besides, on BRG-1, the concentration for half-maximal inhibition (IC50) was less than 100 nM and the “BRG1 Max % Inhibition” value is listed as more than 95%.
